# Activity calls are given as the source filed them.
# Columns and labels:
# [1] = viability of PTEN-deleted HCT116 cells – cell-based, HCT116 PTEN knockout, dose response (AID 1047); type: functional;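 note: HCT116 colon tumor cells with PTEN knocked out; cells exposed to compound for 60 hours before readout; potency for loss of cell viability measured by luminescence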
# [2] = viability of HCT116 lacking mutant beta-catenin – cell-based, human colon tumor, dose response (AID 1045); type: functional;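 note: HCT116 colon tumor cells with beta catenin knocked out; cells exposed to compound for 60 hours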
# [3] = molecular target: T1, High affinity choline transporter 1 (Homo sapiens, UniProt Q9GZV3); assay: human choline transporter blockers, potency – cell-based, 5-point CRC, membrane potential dye, dose response (AID 504840); type: functional
# T1 sequence (Q9GZV3 whole entry): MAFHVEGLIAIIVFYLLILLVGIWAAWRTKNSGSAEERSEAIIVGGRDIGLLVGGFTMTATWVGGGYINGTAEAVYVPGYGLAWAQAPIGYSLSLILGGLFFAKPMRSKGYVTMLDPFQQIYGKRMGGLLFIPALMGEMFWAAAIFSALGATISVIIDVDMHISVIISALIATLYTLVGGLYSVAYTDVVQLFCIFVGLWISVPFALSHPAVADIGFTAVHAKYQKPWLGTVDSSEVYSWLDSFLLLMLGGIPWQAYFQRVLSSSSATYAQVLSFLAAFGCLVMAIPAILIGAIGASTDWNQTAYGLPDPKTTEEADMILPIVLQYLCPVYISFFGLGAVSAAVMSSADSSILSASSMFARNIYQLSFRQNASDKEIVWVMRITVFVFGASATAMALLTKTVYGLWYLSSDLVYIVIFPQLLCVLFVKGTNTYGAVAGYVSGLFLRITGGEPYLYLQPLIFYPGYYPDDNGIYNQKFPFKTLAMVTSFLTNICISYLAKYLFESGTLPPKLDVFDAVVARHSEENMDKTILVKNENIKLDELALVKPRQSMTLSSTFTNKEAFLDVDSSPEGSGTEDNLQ
# cells [4] = type: functional, cell-based
# cells [5] = type: functional, cell-based; remark: listed apart in the source
# [6] = molecular target: Voltage-dependent T-type calcium channel subunit alpha-1H (Homo sapiens, UniProt O95180); type: functional;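 note: channel activity triggered by adding a high calcium stimulation buffer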
# Voltage-dependent T-type calcium channel subunit alpha-1H, sequence (O95180 whole entry): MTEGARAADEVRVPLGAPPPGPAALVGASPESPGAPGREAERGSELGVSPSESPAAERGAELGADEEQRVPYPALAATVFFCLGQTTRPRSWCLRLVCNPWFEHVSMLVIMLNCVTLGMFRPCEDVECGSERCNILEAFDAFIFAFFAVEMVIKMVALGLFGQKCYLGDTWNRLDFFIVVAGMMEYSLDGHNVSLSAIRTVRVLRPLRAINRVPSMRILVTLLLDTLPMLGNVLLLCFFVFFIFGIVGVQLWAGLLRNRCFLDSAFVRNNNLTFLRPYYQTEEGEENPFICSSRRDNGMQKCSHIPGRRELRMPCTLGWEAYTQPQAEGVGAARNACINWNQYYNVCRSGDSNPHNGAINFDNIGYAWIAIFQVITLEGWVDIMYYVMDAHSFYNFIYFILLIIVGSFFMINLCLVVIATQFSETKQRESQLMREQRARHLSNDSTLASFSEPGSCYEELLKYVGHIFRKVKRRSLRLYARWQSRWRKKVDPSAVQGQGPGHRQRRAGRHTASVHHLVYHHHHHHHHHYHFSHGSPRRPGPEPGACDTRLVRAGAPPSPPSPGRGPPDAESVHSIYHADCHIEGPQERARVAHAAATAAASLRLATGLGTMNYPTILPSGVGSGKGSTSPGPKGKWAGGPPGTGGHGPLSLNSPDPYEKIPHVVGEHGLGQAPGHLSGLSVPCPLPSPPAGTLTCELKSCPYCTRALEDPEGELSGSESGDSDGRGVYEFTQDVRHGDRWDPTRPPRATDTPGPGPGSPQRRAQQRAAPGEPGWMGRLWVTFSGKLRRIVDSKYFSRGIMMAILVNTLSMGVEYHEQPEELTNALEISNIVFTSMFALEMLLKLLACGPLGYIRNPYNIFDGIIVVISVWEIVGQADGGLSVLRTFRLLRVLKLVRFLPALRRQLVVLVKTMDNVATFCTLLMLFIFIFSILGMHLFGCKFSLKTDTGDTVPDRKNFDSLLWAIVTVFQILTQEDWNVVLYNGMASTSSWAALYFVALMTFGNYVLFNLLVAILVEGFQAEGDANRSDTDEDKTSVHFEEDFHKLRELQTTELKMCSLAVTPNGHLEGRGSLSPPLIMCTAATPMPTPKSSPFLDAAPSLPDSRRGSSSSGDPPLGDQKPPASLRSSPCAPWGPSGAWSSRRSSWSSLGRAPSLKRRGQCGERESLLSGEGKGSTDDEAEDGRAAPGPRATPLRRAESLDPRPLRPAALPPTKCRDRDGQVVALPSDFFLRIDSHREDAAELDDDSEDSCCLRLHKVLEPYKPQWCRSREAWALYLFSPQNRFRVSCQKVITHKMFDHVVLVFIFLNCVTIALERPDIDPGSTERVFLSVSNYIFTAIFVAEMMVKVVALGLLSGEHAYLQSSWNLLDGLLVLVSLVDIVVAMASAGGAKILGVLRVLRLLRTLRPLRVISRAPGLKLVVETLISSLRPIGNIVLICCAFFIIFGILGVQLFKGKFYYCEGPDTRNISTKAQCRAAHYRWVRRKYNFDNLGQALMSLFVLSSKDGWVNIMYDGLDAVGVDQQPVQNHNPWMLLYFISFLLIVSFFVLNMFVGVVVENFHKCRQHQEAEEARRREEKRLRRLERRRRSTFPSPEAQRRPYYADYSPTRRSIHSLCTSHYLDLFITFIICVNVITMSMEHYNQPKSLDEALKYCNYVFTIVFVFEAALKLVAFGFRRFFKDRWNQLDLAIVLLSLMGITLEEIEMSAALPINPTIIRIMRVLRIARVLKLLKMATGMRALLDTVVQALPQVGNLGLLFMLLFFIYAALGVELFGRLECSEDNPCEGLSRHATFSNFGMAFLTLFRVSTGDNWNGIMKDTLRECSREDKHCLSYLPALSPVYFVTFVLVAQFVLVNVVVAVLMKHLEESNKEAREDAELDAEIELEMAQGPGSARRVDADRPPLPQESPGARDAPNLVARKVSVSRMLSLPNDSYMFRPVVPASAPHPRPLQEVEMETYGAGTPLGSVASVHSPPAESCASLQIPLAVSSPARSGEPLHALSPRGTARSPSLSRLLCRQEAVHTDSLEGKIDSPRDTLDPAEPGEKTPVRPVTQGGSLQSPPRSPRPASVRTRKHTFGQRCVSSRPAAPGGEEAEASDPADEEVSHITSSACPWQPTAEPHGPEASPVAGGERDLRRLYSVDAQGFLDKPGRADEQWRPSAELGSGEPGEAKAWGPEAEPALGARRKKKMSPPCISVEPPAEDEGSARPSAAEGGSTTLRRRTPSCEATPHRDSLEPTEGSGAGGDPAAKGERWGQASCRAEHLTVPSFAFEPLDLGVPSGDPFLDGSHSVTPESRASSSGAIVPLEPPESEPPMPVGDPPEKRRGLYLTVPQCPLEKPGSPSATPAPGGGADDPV
# Beta-galactosidase = Beta-galactosidase (Escherichia coli, UniProt Q8VNN2); assay: PubChem AID 485352; type: functional
# [7] = molecular target: T2, Type-1 angiotensin II receptor (Homo sapiens, UniProt P30556); assay: antagonism of angiotensin II type 1 receptor – cell-based, uHTS hits, selectivity assay for APJ receptor antagonist project, dose response (AID 463214); type: functional;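 note: antagonist potency against angiotensin II stimulated AT1 response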
# T2 sequence (P30556 whole entry): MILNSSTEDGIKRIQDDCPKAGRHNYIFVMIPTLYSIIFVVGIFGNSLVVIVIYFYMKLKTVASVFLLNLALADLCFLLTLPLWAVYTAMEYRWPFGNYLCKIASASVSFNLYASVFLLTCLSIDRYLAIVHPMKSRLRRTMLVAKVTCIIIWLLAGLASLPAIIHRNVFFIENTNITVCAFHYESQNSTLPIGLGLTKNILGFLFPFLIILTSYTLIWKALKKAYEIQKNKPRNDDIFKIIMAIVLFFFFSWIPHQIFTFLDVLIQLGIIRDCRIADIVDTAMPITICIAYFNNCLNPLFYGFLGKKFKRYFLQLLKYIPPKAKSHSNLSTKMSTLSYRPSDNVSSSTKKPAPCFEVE
# Fatty acid synthase [8] = molecular target: T3, Fatty acid synthase (Homo sapiens, UniProt P49327); assay: inhibition of human FAS-TE enzyme activity – biochemical, endpoint fluorescence intensity, uHTS hits, dose response (AID 624327); type: functional;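 note: fluorescence from hydrolysis of an O-methyl fluorescein acyl ester substrate by the enzyme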
# T3 sequence (P49327 whole entry): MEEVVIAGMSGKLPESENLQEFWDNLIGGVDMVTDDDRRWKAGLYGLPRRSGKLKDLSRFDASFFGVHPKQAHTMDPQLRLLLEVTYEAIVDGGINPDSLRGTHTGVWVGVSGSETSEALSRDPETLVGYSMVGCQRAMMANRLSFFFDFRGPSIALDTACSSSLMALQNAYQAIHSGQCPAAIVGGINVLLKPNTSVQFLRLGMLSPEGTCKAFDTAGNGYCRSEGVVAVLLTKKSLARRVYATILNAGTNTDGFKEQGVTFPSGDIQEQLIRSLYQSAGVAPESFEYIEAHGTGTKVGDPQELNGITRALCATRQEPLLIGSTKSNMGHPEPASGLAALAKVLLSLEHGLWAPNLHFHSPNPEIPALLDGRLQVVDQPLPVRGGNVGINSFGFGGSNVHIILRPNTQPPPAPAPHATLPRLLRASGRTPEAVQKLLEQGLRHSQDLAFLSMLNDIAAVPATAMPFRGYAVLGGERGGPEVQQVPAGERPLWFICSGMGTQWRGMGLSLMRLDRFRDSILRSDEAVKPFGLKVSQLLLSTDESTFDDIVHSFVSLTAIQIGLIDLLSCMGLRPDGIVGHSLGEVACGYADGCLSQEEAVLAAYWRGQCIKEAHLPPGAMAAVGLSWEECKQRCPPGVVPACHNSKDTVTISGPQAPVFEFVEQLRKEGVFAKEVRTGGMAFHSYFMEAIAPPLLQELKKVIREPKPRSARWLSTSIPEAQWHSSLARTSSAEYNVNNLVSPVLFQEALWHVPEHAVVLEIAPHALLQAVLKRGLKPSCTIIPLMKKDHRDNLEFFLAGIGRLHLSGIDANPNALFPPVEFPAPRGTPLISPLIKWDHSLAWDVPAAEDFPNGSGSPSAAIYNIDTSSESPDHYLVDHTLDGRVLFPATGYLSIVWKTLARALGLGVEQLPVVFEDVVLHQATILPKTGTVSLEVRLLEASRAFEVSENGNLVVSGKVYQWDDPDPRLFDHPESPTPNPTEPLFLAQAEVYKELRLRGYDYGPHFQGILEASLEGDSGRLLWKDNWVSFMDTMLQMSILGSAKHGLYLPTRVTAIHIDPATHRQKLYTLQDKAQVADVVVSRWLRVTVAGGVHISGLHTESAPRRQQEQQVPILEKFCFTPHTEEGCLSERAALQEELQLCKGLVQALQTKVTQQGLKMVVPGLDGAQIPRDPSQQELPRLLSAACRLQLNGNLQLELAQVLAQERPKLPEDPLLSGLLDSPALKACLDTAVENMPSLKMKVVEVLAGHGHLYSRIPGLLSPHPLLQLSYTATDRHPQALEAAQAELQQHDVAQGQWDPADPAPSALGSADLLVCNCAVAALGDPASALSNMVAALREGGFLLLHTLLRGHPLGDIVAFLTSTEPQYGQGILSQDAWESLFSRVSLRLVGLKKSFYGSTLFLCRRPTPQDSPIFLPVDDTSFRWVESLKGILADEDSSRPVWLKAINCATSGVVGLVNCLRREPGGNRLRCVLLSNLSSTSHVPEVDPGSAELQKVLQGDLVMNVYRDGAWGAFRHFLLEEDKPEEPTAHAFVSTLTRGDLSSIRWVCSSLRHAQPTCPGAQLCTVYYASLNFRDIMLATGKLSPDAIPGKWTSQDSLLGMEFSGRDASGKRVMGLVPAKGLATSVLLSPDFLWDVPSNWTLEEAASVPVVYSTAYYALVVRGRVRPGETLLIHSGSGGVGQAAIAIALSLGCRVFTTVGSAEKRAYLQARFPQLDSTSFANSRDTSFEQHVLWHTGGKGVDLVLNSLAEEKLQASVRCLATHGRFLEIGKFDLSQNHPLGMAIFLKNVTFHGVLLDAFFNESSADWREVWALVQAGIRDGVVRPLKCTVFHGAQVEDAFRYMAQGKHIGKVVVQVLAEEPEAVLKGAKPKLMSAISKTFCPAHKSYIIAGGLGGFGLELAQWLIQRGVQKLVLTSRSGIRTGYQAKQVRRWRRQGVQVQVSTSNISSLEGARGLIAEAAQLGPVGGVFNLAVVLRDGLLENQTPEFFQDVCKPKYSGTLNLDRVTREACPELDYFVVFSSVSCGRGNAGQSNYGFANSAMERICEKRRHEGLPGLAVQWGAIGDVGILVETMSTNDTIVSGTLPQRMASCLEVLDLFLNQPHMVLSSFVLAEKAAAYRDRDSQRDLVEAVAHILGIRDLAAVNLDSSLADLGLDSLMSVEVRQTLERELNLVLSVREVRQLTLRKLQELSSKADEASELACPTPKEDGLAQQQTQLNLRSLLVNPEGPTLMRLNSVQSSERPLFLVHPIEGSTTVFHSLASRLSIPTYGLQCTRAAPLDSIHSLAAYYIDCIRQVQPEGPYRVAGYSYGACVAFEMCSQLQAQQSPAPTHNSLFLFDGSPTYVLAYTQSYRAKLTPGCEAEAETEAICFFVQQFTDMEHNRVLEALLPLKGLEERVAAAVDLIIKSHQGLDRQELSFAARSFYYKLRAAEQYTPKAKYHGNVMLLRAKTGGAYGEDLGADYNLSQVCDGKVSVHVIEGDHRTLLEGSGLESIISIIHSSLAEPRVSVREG
# Fatty acid synthase [9] = molecular target: T3, Fatty acid synthase; assay: inhibition of human FAS-TE enzyme activity – biochemical, kinetic fluorescence intensity, dose response (AID 624326); type: functional;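 note: rate of fluorescence rise from hydrolysis of a fluorogenic O-methyl fluorescein ester substrate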
# [10] = molecular target: T4, Ubiquitin-conjugating enzyme E2 N (Homo sapiens, UniProt P61088); type: functional;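 note: Dose-response confirmation in a TR-FRET assay detecting UBC13-driven polyubiquitin chain formation, inhibition measured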
# T4 sequence (P61088 whole entry): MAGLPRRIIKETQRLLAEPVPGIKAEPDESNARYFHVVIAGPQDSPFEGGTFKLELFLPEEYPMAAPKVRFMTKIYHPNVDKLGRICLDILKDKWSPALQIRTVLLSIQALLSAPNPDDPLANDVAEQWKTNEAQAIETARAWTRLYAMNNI
# [11] = molecular target: T5, Rac GTPase-activating protein 1 (Homo sapiens, UniProt Q9H0H5); assay: blockers of MgcRacGAP-driven Rac1 GTP hydrolysis – biochemical, ADP Hunter fluorescence, primary and confirmatory, confirmation (AID 624330); type: functional
# T5 sequence (Q9H0H5 whole entry): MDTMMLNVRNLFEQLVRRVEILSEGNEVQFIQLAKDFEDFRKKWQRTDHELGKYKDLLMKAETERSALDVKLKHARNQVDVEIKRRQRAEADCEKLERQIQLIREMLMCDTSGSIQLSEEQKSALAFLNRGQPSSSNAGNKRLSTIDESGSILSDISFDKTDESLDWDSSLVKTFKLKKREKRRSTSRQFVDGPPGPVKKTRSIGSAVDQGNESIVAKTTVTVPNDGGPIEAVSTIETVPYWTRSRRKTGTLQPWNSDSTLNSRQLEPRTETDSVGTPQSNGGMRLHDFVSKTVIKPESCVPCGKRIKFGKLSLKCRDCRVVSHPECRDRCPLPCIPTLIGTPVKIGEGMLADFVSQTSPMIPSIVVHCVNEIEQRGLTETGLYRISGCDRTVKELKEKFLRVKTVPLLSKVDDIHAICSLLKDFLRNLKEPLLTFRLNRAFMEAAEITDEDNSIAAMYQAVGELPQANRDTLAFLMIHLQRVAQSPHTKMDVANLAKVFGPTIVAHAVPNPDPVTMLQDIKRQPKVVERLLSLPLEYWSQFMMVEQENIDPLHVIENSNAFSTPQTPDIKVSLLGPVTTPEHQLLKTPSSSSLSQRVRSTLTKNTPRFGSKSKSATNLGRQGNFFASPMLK
# [12] = molecular target: T6, Calpain-2 catalytic subunit (Sus scrofa, UniProt P43367); assay: m-calpain protease blockers, concentration series – biochemical, fluorogenic peptide substrate, dose response (AID 1420); type: functional
# T6 sequence (P43367 whole entry): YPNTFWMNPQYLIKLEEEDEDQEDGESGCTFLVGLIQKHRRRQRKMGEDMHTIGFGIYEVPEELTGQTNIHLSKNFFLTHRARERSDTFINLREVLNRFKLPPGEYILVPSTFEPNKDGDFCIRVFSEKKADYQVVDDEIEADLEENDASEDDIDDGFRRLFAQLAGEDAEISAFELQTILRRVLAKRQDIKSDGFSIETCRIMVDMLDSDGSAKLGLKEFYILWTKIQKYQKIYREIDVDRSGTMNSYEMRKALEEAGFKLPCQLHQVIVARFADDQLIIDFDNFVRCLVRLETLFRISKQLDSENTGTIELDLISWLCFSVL
# [13] = Luminescence Cell-Based Dose Retest to Confirm Inhibitors of Cancer Stem Cells. [Related pubchem assays (depositor defined):AID2717, AID2721]; type: functional; details: Homo sapiens
# [14] = molecular target: T7, Heat shock factor protein 1 (Mus musculus, UniProt P38532); assay: decrease of HSF1-responsive luciferase luminescence – cell-based, NIH3T3, dose retest, confirmation (AID 2382); type: functional;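 note: NIH3T3 fibroblasts with HSF1-driven luciferase reporter stressed by proteasome inhibitor MG132; luminescence from HSF1-driven luciferase expression after 8 hours of MG132 stress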
# T7 sequence (P38532 whole entry): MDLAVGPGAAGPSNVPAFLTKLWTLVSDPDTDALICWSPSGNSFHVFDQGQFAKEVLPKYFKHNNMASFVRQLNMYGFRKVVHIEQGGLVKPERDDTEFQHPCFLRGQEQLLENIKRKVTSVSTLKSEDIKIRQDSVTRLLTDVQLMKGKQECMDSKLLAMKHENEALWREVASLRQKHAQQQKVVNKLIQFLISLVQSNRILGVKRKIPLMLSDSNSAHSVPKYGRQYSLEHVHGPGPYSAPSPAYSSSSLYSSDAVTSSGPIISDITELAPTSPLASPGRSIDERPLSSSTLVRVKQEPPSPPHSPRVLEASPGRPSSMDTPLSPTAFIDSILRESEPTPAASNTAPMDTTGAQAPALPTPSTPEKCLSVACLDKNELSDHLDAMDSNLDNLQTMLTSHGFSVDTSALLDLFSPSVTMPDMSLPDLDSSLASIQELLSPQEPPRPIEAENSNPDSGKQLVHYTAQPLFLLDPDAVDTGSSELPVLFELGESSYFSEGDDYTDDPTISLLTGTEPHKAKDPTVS
# [15] = blockers of HIV-1 envelope-mediated cell-cell fusion – cherry-pick, dose response (AID 652057); type: functional, cell-based
# [16] = blockers of HIV-1 ZM109 envelope-driven cell-cell fusion – HeLa effector, CEM target cells, luciferase, cherry-pick, dose response (AID 652058); type: functional, cell-based;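 note: luciferase signal from HIV-1 Env mediated cell-cell fusion of effector and target cells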
# [17] = HIV-1 AD8 envelope cell-cell fusion blockers – cherry-pick, dose response (AID 652062); type: functional, cell-based;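 note: luciferase signal from cell-cell fusion driven by HIV-1 clade B AD8 Env; potency is for inhibitors of fusion seen as a drop in luminescence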
structure (smiles),measurement,setting,value
COc1ccc(-c2csc3nc(-c4cccnc4)nc(Cl)c23)cc1OC,EC50,[1],11.5 µM (active)
same,EC50,[2],10.4 µM (active)
CC(C)c1nc(C(=O)N2CCCC(N3CCN(c4cccc(Cl)c4)CC3)C2)cs1 (stereo not drawn),IC50,[3],13.2 µM (active)
O=C(CSc1c[nH]c2ccccc12)NCc1ccc2c(c1)OCO2,EC50,cells [4],> 350 µM (not active)
same,EC50,cells [5],> 350 µM (not active)
CCN(CC)S(=O)(=O)c1ccc(NC(=O)CCC2CCCCC2)cc1,EC50,[6],10.3 µM (active)
Cc1ccccc1N=C(S)NNc1ncc(C(F)(F)F)cc1Cl,EC50,Beta-galactosidase,> 40 µM (inactive)
same,IC50,[7],39.3 µM (not active)
O=C(COC(=O)c1cc([N+](=O)[O-])ccc1Cl)NC1CCCC1,IC50,Fatty acid synthase [8],0.979 µM (active)
same,IC50,Fatty acid synthase [9],1.12 µM (active)
COc1ccc(CCN(C)C(=O)c2ccc(COc3ccccc3)o2)cc1OC,IC50,[10],> 20 µM (inactive)
same,IC50,[3],13.8 µM (active)
CCOC(=O)c1cccc(NC(=O)CSc2nnc(C)n2Cc2ccccc2)c1,IC50,[3],0.794 µM (active)
COc1ccc2[nH]c3c(c2c1)CCN1C(=O)C(CC(=O)NCCc2ccccn2)C[C@H](C(=O)N2CCOCC2)[C@@]31CCC1CCCC1 (stereo partly drawn),IC50,Fatty acid synthase [8],7.16 µM (active)
same,IC50,Fatty acid synthase [9],8.91 µM (active)
COc1ccc(CC(=O)N(C)Cc2ccc(C(C)(C)C)cc2)cc1S(=O)(=O)N1CCOCC1,IC50,Fatty acid synthase [8],2.25 µM (active)
same,IC50,Fatty acid synthase [9],2.02 µM (active)
CCCCn1nc2cc(C(=O)NCCc3cccs3)ccc2c1OCC,IC50,[3],11.8 µM (active)
Cn1c(=O)cc(C(=O)N/N=C/c2ccc(F)cc2)[nH]c1=O,EC50,cells [4],> 350 µM (not active)
same,EC50,cells [5],> 350 µM (not active)
Cc1ccc(NC(=O)CCC(=O)N/N=C/c2ccc(O)cc2O)cc1,EC50,cells [4],> 350 µM (not active)
same,EC50,cells [5],> 350 µM (not active)
same,IC50,[11],56.6 µM (active)
CCCOc1cccc(C2C(C(=O)c3ccco3)=C(O)C(=O)N2CCCn2ccnc2)c1 (stereo not drawn),EC50,cells [4],> 350 µM (not active)
same,EC50,cells [5],> 350 µM (not active)
Cc1nc(-c2ccccc2)sc1-c1nc(-c2cccnc2)ncc1S(=O)(=O)c1ccccc1,EC50,[6],8.73 µM (active)
Cc1cc(NC(=O)COC(=O)C(Nc2ccc(C(F)(F)F)cc2Cl)C(C)C)no1 (stereo not drawn),IC50,[12],9.49 µM (not active)
same,EC50,[6],3.96 µM (active)
COc1cccc(CNC(=O)CSCc2cnn(-c3ccccc3)c2-n2cccc2)c1OC,EC50,[6],3.32 µM (active)
COc1cc2c(cc1OC)C1(Nc3c-2c(C)nn3-c2ccccc2)C(=O)Nc2ccccc21 (stereo not drawn),EC50,[2],73.2 µM (active)
COc1ccc(N2CCN(S(=O)(=O)c3cc(-c4cc(C)no4)ccc3C(C)C)CC2)cc1,EC50,cells [4],> 350 µM (not active)
same,EC50,cells [5],> 350 µM (not active)
N=c1c2c(ncn1Cc1ccco1)Oc1c(ccc3ccccc13)C2c1ccccc1 (stereo not drawn),EC50,[1],5.53 µM (active)
same,EC50,[2],5.92 µM (active)
same,AC50,[13],2.25 µM (active)
CCCN=C(S)N1CCCC(c2nc3ccccc3[nH]2)C1 (stereo not drawn),EC50,cells [4],> 350 µM (not active)
same,EC50,[14],> 195 µM (not active)
same,EC50,cells [5],> 350 µM (not active)
O=C1C=C(c2ccc(Cl)c(C(F)(F)F)c2)C[C@@H](c2ccc3c(c2)OCO3)C1,AC50,[13],5.04 µM (active)
same,IC50,Fatty acid synthase [8],5.66 µM (active)
same,IC50,Fatty acid synthase [9],5.82 µM (active)
Cc1nc2ccc([N+](=O)[O-])cc2c(=O)n1Cc1ccc(F)cc1,IC50,Fatty acid synthase [8],3.27 µM (active)
same,IC50,Fatty acid synthase [9],4.49 µM (active)
C[C@H](CO)N1C[C@H](C)[C@H](CN(C)S(=O)(=O)c2cccc(F)c2)Oc2cc(Br)ccc2S1(=O)=O,AC50,[15],5.29 µM (active)
same,AC50,[16],3.27 µM (active)
same,AC50,[17],33.5 µM (active)
C[C@H](CO)N1C[C@H](C)[C@H](CN(C)Cc2ccccc2)Oc2cc(-c3ccccc3)ccc2S1(=O)=O,AC50,[15],18.9 µM (active)
same,AC50,[16],21 µM (active)
same,AC50,[17],26.7 µM (active)
O=C(COc1ncnc2cc([N+](=O)[O-])ccc12)N(CCc1ccccc1)Cc1ccccc1,IC50,Fatty acid synthase [8],5.94 µM (active)
same,IC50,Fatty acid synthase [9],22.2 µM (inactive)
CCN1CCN(c2ccc(NC(=O)c3ccc4c(c3)nc(O)n4Cc3ccc(OC)cc3)cc2)CC1,EC50,[1],34.2 µM (active)
same,EC50,[2],32.2 µM (active)

# From ChEMBL document CHEMBL1201862, “PubChem BioAssay data set” (2004)
